From ChEMBL document CHEMBL5260833, “An overview of quinazolines: Pharmacological significance and recent developments” (Eur J Med Chem, 2018)
In brackets after ≈: the same amount, converted by molar mass. Blank lines part the entries; values can stand above or below the compound they belong to.

What was measured:
[1] = CNS toxicity in po dosed mouse assessed as depression in CNS; type: organism-based; details: in vivo
[2] = tested on: Escherichia coli; experiment: Antibacterial activity against Escherichia coli assessed as zone of inhibition at 100 ppm; type: functional; details: read-out: IZ
[3] = tested on: Staphylococcus aureus; experiment: Antibacterial activity against Staphylococcus aureus assessed as zone of inhibition at 100 ppm; type: functional; details: read-out: IZ
[4] = tested on: Mus musculus; experiment: Analgesic activity in […] albino mouse at 20 mg/kg, po measured after 2 hrs by Tail-Flick technique relative to control; type: functional
[5] = tested on: Staphylococcus epidermidis; experiment: Antimicrobial activity against Staphylococcus epidermidis assessed as bacterial growth inhibition; type: functional
[6] = tested on: Staphylococcus aureus; experiment: Antimicrobial activity against Staphylococcus aureus assessed as bacterial growth inhibition; type: functional
[7] = tested on: Pseudomonas aeruginosa; experiment: Antimicrobial activity against Pseudomonas aeruginosa assessed as bacterial growth inhibition; type: functional
[8] = tested on: Citrobacter freundii; experiment: Antimicrobial activity against Citrobacter freundii assessed as bacterial growth inhibition; type: functional
[9] = tested on: Klebsiella oxytoca; experiment: Antimicrobial activity against Klebsiella oxytoca assessed as bacterial growth inhibition; type: functional
[10] = tested on: Escherichia coli; experiment: Antimicrobial activity against Escherichia coli assessed as bacterial growth inhibition; type: functional
[11] = tested on: Mycolicibacterium phlei; experiment: Antimicrobial activity against Mycobacterium phlei assessed as bacterial growth inhibition; type: functional
[12] = tested on: Proteus mirabilis; experiment: Antimicrobial activity against Proteus mirabilis assessed as bacterial growth inhibition; type: functional
[13] = tested on: Proteus vulgaris; experiment: Antimicrobial activity against Proteus vulgaris assessed as bacterial growth inhibition; type: functional
[14] = tested on: Candida albicans; experiment: Antimicrobial activity against Candida albicans assessed as bacterial growth inhibition; type: functional
[15] = tested on: Staphylococcus saprophyticus; experiment: Antimicrobial activity against Staphylococcus saprophyticus assessed as bacterial growth inhibition; type: functional
[16] = tested on: Bacillus subtilis; experiment: Antimicrobial activity against Bacillus subtilis assessed as bacterial growth inhibition; type: functional
[17] = tested on: Micrococcus luteus; experiment: Antimicrobial activity against Micrococcus luteus assessed as bacterial growth inhibition; type: functional
[18] = species on record: Homo sapiens; experiment: Immunosuppressive activity in human T cell; type: functional, organism-based
[19] = species on record: Homo sapiens; experiment: Immunosuppressive activity in human B cell; type: functional, organism-based

Compound: CC(=O)Nc1ccc2nc(CS(C)(=O)=O)n(-c3ccccc3C)c(=O)c2c1
LD50 [1]: > 1000 mg/kg

Compound: Cc1nc2ccc(Br)cc2c(=O)n1/N=C/c1cc(Cl)cc(Cl)c1O
zone of inhibition at 100 µg/mL [2]: 14 mm
zone of inhibition at 100 µg/mL [3]: 16 mm

Compound: CCN(CC)C(=S)Nn1c(-c2ccccc2)nc2ccccc2c1=O
Activity [4]: 58%

Compound: CCC(CC)=NNC1=Nc2ccccc2C(=O)C1c1ccc(OC)cc1 (stereo not given)
Activity [4]: 64%

Compound: COc1cc(/C=N/n2c(C)nc3ccc(I)cc3c2=O)cc(Br)c1O
zone of inhibition at 100 µg/mL [2]: 14 mm
zone of inhibition at 100 µg/mL [3]: 16 mm

Compound: CC(=O)Nc1ccc2nc(C[S+](C)[O-])n(-c3ccccc3C)c(=O)c2c1 (stereo not given)
LD50 [1]: > 1000 mg/kg

Compound: CC(=O)Nc1ccc2nc(CO)n(-c3ccccc3C)c(=O)c2c1
LD50 [1]: > 1000 mg/kg

MIC [5]: 125 µg/mL (≈ 254 µM)
MIC [6]: 125 µg/mL (≈ 254 µM)
MIC [7]: 125 µg/mL (≈ 254 µM)
MIC [8]: 125 µg/mL (≈ 254 µM)
MIC [9]: 125 µg/mL (≈ 254 µM)
MIC [10]: 125 µg/mL (≈ 254 µM)
MIC [11]: 125 µg/mL (≈ 254 µM)
MIC [12]: 125 µg/mL (≈ 254 µM)
MIC [13]: 125 µg/mL (≈ 254 µM)
MIC [14]: 125 µg/mL (≈ 254 µM)
MIC [15]: 125 µg/mL (≈ 254 µM)
MIC [16]: 125 µg/mL (≈ 254 µM)
MIC [17]: 125 µg/mL (≈ 254 µM)
Compound: CCOC(=O)Oc1ccc(-n2c(/C=C/c3ccc(Cl)cc3)nc3cc([N+](=O)[O-])ccc3c2=O)cc1

MIC [5]: 125 µg/mL (≈ 269 µM)
MIC [6]: 125 µg/mL (≈ 269 µM)
MIC [7]: 125 µg/mL (≈ 269 µM)
MIC [8]: 125 µg/mL (≈ 269 µM)
MIC [9]: 125 µg/mL (≈ 269 µM)
MIC [10]: 125 µg/mL (≈ 269 µM)
MIC [11]: 125 µg/mL (≈ 269 µM)
MIC [12]: 125 µg/mL (≈ 269 µM)
MIC [13]: 125 µg/mL (≈ 269 µM)
MIC [14]: 125 µg/mL (≈ 269 µM)
MIC [15]: 125 µg/mL (≈ 269 µM)
MIC [16]: 125 µg/mL (≈ 269 µM)
MIC [17]: 125 µg/mL (≈ 269 µM)
Compound: O=c1c2ccc(Cl)cc2nc(/C=C/c2ccc(Cl)cc2)n1-c1ccc(OCC2CO2)cc1 (stereo not given)

IC50 [18]: 1410 nM
IC50 [19]: 2930 nM
Compound: Nc1nc(N)c2c(CCCc3ccc(C(=O)N[C@@H](C[C@H](F)C(=O)O)C(=O)O)cc3)c[nH]c2n1

MIC [5]: 125 µg/mL (≈ 260 µM)
MIC [6]: 125 µg/mL (≈ 260 µM)
MIC [7]: 125 µg/mL (≈ 260 µM)
MIC [8]: 125 µg/mL (≈ 260 µM)
MIC [9]: 125 µg/mL (≈ 260 µM)
MIC [10]: 125 µg/mL (≈ 260 µM)
MIC [11]: 125 µg/mL (≈ 260 µM)
MIC [12]: 125 µg/mL (≈ 260 µM)
MIC [13]: 125 µg/mL (≈ 260 µM)
MIC [14]: 125 µg/mL (≈ 260 µM)
MIC [15]: 125 µg/mL (≈ 260 µM)
MIC [16]: 125 µg/mL (≈ 260 µM)
MIC [17]: 125 µg/mL (≈ 260 µM)
Compound: CCOC(=O)Oc1ccc(-n2c(/C=C/c3ccc(Cl)cc3)nc3cc(Cl)ccc3c2=O)cc1

Compound: O=c1c2ccc(Cl)cc2nc(/C=C/c2ccc(Cl)cc2)n1-c1ccc(O)cc1
MIC [5]: 125 µg/mL (≈ 305 µM)
MIC [6]: 125 µg/mL (≈ 305 µM)
MIC [7]: 125 µg/mL (≈ 305 µM)
MIC [8]: 125 µg/mL (≈ 305 µM)
MIC [9]: 125 µg/mL (≈ 305 µM)
MIC [10]: 125 µg/mL (≈ 305 µM)
MIC [11]: 125 µg/mL (≈ 305 µM)
MIC [12]: 125 µg/mL (≈ 305 µM)
MIC [13]: 125 µg/mL (≈ 305 µM)
MIC [14]: 125 µg/mL (≈ 305 µM)
MIC [15]: 125 µg/mL (≈ 305 µM)
MIC [16]: 125 µg/mL (≈ 305 µM)
MIC [17]: 125 µg/mL (≈ 305 µM)

MIC [5]: 125 µg/mL (≈ 263 µM)
MIC [6]: 125 µg/mL (≈ 263 µM)
MIC [7]: 125 µg/mL (≈ 263 µM)
MIC [8]: 125 µg/mL (≈ 263 µM)
MIC [9]: 125 µg/mL (≈ 263 µM)
MIC [10]: 125 µg/mL (≈ 263 µM)
MIC [11]: 125 µg/mL (≈ 263 µM)
MIC [12]: 125 µg/mL (≈ 263 µM)
MIC [13]: 125 µg/mL (≈ 263 µM)
MIC [14]: 125 µg/mL (≈ 263 µM)
MIC [15]: 125 µg/mL (≈ 263 µM)
MIC [16]: 125 µg/mL (≈ 263 µM)
MIC [17]: 125 µg/mL (≈ 263 µM)
Compound: O=c1c2ccc([N+](=O)[O-])cc2nc(/C=C/c2ccc(Cl)cc2)n1-c1ccc(OCC2CO2)cc1 (stereo not given)

Compound: COc1cc(/C=N/n2c(C)nc3ccc(Br)cc3c2=O)cc(I)c1O
zone of inhibition at 100 µg/mL [2]: 14 mm
zone of inhibition at 100 µg/mL [3]: 16 mm

MIC [5]: 125 µg/mL (≈ 263 µM)
MIC [6]: 125 µg/mL (≈ 263 µM)
MIC [7]: 125 µg/mL (≈ 263 µM)
MIC [8]: 125 µg/mL (≈ 263 µM)
MIC [9]: 125 µg/mL (≈ 263 µM)
MIC [10]: 125 µg/mL (≈ 263 µM)
MIC [11]: 125 µg/mL (≈ 263 µM)
MIC [12]: 125 µg/mL (≈ 263 µM)
MIC [13]: 125 µg/mL (≈ 263 µM)
MIC [14]: 125 µg/mL (≈ 263 µM)
MIC [15]: 125 µg/mL (≈ 263 µM)
MIC [16]: 125 µg/mL (≈ 263 µM)
MIC [17]: 125 µg/mL (≈ 263 µM)
Compound: O=c1c2ccc(Cl)cc2nc(/C=C/c2ccccc2[N+](=O)[O-])n1-c1ccc(OCC2CO2)cc1 (stereo not given)

Compound: Cc1nc2ccccc2c(=O)n1NC(=S)N1CCCC1
Activity [4]: 65%

Compound: COc1cc(/C=N/n2c(C)nc3ccc(Br)cc3c2=O)cc(Br)c1O
zone of inhibition at 100 µg/mL [2]: 14 mm
zone of inhibition at 100 µg/mL [3]: 16 mm

IC50 [18]: 5.67 nM
IC50 [19]: 8.08 nM
Compound: C#CCN(Cc1ccc2nc(C)[nH]c(=O)c2c1)c1ccc(C(=O)N[C@@H](C[C@@H](F)C(=O)O)C(=O)O)cc1

Compound: COc1cc(/C=N/n2c(C)nc3ccc(I)cc3c2=O)cc(I)c1O
zone of inhibition at 100 µg/mL [2]: 14 mm
zone of inhibition at 100 µg/mL [3]: 16 mm

Compound: CC(=O)Nc1ccc2nc(CF)n(-c3ccccc3C)c(=O)c2c1
LD50 [1]: > 1000 mg/kg

Compound: CCCCc1nc2ccccc2c(=O)n1NC(=S)N1CCCC1
Activity [4]: 73%
